pEC50, pIC50: −log10 of the molar value. Converted amounts (≈) assume the structure as drawn.
Key:
Chikungunya virus [1] = assay: Antiviral activity against CHIKV infected in hamster BHK-21 cells assessed as inhibition of viral replication at 20 uM measured after 48 hrs by renilla luciferase assay relative to control; type: functional; parameters: scale not given: the % may be the effect or the level left
Chikungunya virus [2] = assay: Antiviral activity against CHIKV infected in human foreskin fibroblast cells; type: functional, organism-based
Chikungunya virus [3] = assay: Antiviral activity against CHIKV-ZsGreen infected in African green monkey Vero incubated for 24 hrs by flow cytometry analysis; type: functional, organism-based
[4] = Selectivity index, ratio of CC50 for human Huh-7 cells to EC50 for Yellow fever virus 17D; type: toxicity; conditions: read-out: Ratio CC50/EC50
[5] = Selectivity index, ratio of CC50 for hamster BHK-21 cells to EC50 for CHIKV infected in hamster BHK-21 cells; type: toxicity, cell-based; conditions: read-out: Ratio CC50/EC50
[6] = Kinetic solubility of the compound in FaSSGF at pH 1.2 by LCMS analysis; type: ADME; conditions: read-out: Kinetic_solubility
BHK-21 = assay: (§1) Cytotoxicity against hamster BHK-21 cells assessed as reduction in cell viability measured after 48 hrs by MTT assay; type: toxicity, cell-based, Mesocricetus auratus; conditions: bhk-21, 48 h
[7] = Inhibition of N-terminal His-tagged human PDI expressed in Escherichia coli BL21 (DE3) incubated for 1 hr
HepG2 = assay: Cytotoxicity against human HepG2 cells assessed as reduction in cell viability measured after 48 hrs by MTT assay; type: functional
[8] = Kinetic solubility of the compound in FaSSIF at pH 6.8 by LCMS analysis; type: ADME; conditions: read-out: Kinetic_solubility
[9] = Metabolic stability in human liver microsomes assessed as hepatic clearance preincubated for 5 mins followed by NADPH addition and measured after 20 mins by LCMS analysis; type: ADME, Microsome; conditions: time 25 min
[10] = Apparent permeability of the compound across apical side to basolateral side in human Caco-2 cells; type: ADME, cell-based
[11] = Metabolic stability in mouse liver microsomes assessed as intrinsic clearance at 100 uM preincubated for 5 mins followed by NADPH addition and measured upto 60 mins by LCMS analysis; type: ADME, Microsome; conditions: time < 65 min, read-out: CLH
Huh-7 [12] = assay: Cytotoxicity against human Huh-7 cells infected with yellow fever virus assessed as reduction in cell viability incubated for 48 hrs by MTT assay; type: functional
[13] = Kinetic solubility of the compound in buffer at pH 7.4 by LCMS analysis; type: physicochemical; conditions: read-out: Kinetic_solubility
Vero 76 = assay: Cytotoxicity against African green monkey Vero 76 cells assessed as reduction in cell viability incubated for 48 hrs by MTT assay; type: toxicity, cell-based; conditions: chlorocebus sabaeus, vero 76, 48 h
Chikungunya virus [14] = assay: Antiviral activity against CHIKV S27 infected in Vero 76 cells assessed as reduction in cytopathic effect; type: functional; conditions: S27, Vero 76
Chikungunya virus [15] = assay: Antiviral activity against CHIKV S27 infected in Huh-7 cells assessed as reduction in cytopathic effect; type: functional, organism-based; conditions: S27, Huh-7
Huh-7 [16] = assay: Cytotoxicity against human Huh-7 cells assessed as reduction in cell viability measured after 48 hrs by MTT assay; type: functional
Huh-7 [17] = assay: Cytotoxicity against human Huh-7 cells assessed as reduction in cell viability incubated for 48 hrs by MTT assay; type: functional
Chikungunya virus [18] = assay: Antiviral activity against CHIKV S27 infected in Huh-7 cells assessed as reduction in cytopathic effect by neutral red staining based analysis; type: functional, organism-based; conditions: S27, Huh-7
Chikungunya virus [19] = assay: Antiviral activity against CHIKV S27 infected in Vero 76 cells assessed as reduction in cytopathic effect by neutral red staining based analysis; type: functional, organism-based; conditions: S27, Vero 76
[20] = Selectivity index, ratio of CC50 for human Huh-7 cells to EC50 for Yellow fever virus 17D assessed as reduction in cytopathic effect by neutral red staining based analysis; type: toxicity; conditions: read-out: Ratio CC50/EC50
[21] = Selectivity index, ratio of CC50 for human Huh-7 cells to EC50 for CHIKV S27 infected in Huh-7 cells; type: toxicity, cell-based; conditions: read-out: Ratio CC50/EC50
Yellow fever virus [22] = assay: Antiviral activity against Yellow fever virus 17D infected in Huh-7 cells assessed as reduction in cytopathic effect; type: functional, organism-based
[23] = Apparent permeability of the compound across basolateral side to apical side in human Caco-2 cells assessed as drug recovery; type: ADME, cell-based
[24] = Apparent permeability of the compound across apical side to basolateral side in human Caco-2 cells assessed as drug recovery; type: ADME, cell-based
[25] = Selectivity index, ratio of CC50 for human Huh-7 cells to EC50 for CHIKV S27 infected in Huh-7 cells assessed as reduction in cytopathic effect by neutral red staining based analysis; type: toxicity, cell-based; conditions: read-out: Ratio CC50/EC50
Chikungunya virus [26] = assay: Antiviral activity against CHIKV infected in hamster BHK-21 cells assessed as inhibition of viral replication measured after 48 hrs by gaussia luciferase assay; type: functional, organism-based; conditions: BHK-21, 48 h
Yellow fever virus [27] = assay: Antiviral activity against Yellow fever virus 17D infected in Huh-7 cells assessed as reduction in cytopathic effect by neutral red staining based analysis; type: functional, organism-based
Chikungunya virus [28] = assay: Antiviral activity against CHIKV infected in hamster BHK-21 cells; type: functional, organism-based
Chikungunya virus [29] = assay: Antiviral activity against CHIKV infected in […] Huh-7 cells; type: functional, organism-based
[30] = as §1; type: toxicity, cell-based, Mesocricetus auratus; conditions: BHK-21 cells
Chikungunya virus [31] = assay: Antiviral activity against CHIKV infected in African green monkey Vero cells; type: functional, organism-based

SMILES: Cc1cc(C)nc(NS(=O)(=O)c2ccc(NC(=O)CN3C(=O)C4CC=CCC4C3=O)cc2)n1 (stereo not drawn)
- Activity (Chikungunya virus [1]): 100%

SMILES: COc1ccc(C(=O)/C=C/c2ccc(O)cc2)c(O)c1CC=C(C)C
- Activity (Chikungunya virus [1]): 13.5%

SMILES: O=C(C1CC1)N1CCN(Cn2sc3ccccc3c2=O)CC1
- Activity (Chikungunya virus [1]): 14%

SMILES: CC(C)n1ncc2c1N=C(O)CC2c1ccc(-c2ccc(C(=O)O)cc2)o1 (stereo not drawn)
- Activity (Chikungunya virus [1]): 100%

SMILES: O=C(O)c1ccc(S(=O)(=O)Nc2ccc(S(=O)(=O)Nc3ccccn3)cc2)cc1
- Activity (Chikungunya virus [1]): 100%

SMILES: O=C1CC(c2ccc(S(=O)(=O)Nc3ccccc3C(=O)Nc3ccc(F)cc3)cc2)CN1 (stereo not drawn)
- Activity (Chikungunya virus [1]): 100%

SMILES: O=C(O)c1nc(=O)[nH]c2ccccc12
- pIC50 (Chikungunya virus [2]): 4.64

SMILES: Cc1nc(C)c(CN2CCCC(C(=O)Nc3cccc(-n4cnnn4)c3)C2)nc1C (stereo not drawn)
- Activity (Chikungunya virus [1]): 100%

SMILES: NC(=O)C1CCN(c2nc3c(c(=O)[nH]2)C(C(=O)Nc2ccccc2Cl)CC(=O)N3)CC1 (stereo not drawn)
- Activity (Chikungunya virus [1]): 140%

SMILES: Cc1cc([N+](=O)[O-])ccc1-c1ccc(C2N=C(O)c3c(sc4c3CCN(C)C4)N2)o1 (stereo not drawn)
- Activity (Chikungunya virus [1]): 100%

SMILES: OC(CNC1CCN(Cc2ccccc2)CC1)COc1ccccc1 (stereo not drawn)
- pEC50 (Chikungunya virus [3]): 5.80

SMILES: Cn1c(=O)[nH]c2ccc(S(=O)(=O)NCCCOC34CC5CC(CC(C5)C3)C4)cc2c1=O
- Activity (Chikungunya virus [1]): 100%

SMILES: Cc1nc2c(=O)n(C)c(=O)nc-2n(C)n1
- selectivity ratio [4]: 3.2
- selectivity ratio [5]: 30.8
- solubility kinetic [6]: 424 µM (≈ 87.7 µg/mL)
- CC50 (BHK-21): 6200 nM
- pIC50 [7]: 6.77
- CC50 (HepG2): 11000 nM
- solubility kinetic [8]: 228 µM (≈ 47.1 µg/mL)
- CLhep predicted [9]: < 6.1 mL/min/kg
- Papp [10]: 17.8 10^-6 cm/s
- microsomal CLint at 100 µM [11]: 7.4 µL/min/mg
- CC50 (Huh-7 [12]): 1200 nM
- solubility kinetic [13]: 400 µM (≈ 82.8 µg/mL)
- CC50 (Vero 76): 1700 nM
- EC90 (Chikungunya virus [14]): > 1700 nM
- pEC50 (Chikungunya virus [15]): 6.72
- CC50 (Huh-7 [16]): 3200 nM
- CC50 (Huh-7 [17]): 1100 nM
- pEC50 (Chikungunya virus [18]): > 7.00
- pEC50 (Chikungunya virus [19]): < 5.77
- Activity (Chikungunya virus [1]): 2%
- selectivity ratio [20]: 2.9
- selectivity ratio [21]: 17
- pEC50 (Yellow fever virus [22]): 6.43
- Drug recovery [23]: 93.5%
- Drug recovery [24]: 103%
- selectivity ratio [25]: > 11
- pEC50 (Chikungunya virus [26]): 6.70
- pEC50 (Yellow fever virus [27]): 6.38

SMILES: CC(=O)c1ccc(S(=O)(=O)NC(=O)NC2CCCCC2)cc1 [ACETOHEXAMIDE]
- Activity (Chikungunya virus [1]): 100%

SMILES: CCN(CC)Cc1cc(Nc2ccnc3cc(Cl)ccc23)ccc1O [AMODIAQUINE]
- Activity (Chikungunya virus [1]): 19%

SMILES: CN1[C@@H]2CC[C@H]1C[C@@H](OC(=O)C(CO)c1ccccc1)C2 (stereo partly drawn) [ATROPINE]
- Activity (Chikungunya virus [1]): 149.2%

SMILES: COc1c(O)cc2c(c1O)[C@@H]1O[C@H](CO)[C@@H](O)[C@H](O)[C@H]1OC2=O [BERGENIN]
- Activity (Chikungunya virus [1]): 100%

SMILES: C[C@@H]1C[C@H]2[C@@H]3CCC4=CC(=O)C=C[C@]4(C)[C@@]3(F)[C@@H](O)C[C@]2(C)[C@@]1(O)C(=O)CO [DEXAMETHASONE]
- Activity (Chikungunya virus [1]): 70.9%

SMILES: C=CCc1ccc(OC)cc1 [ESTRAGOLE]
- Activity (Chikungunya virus [1]): 100%

SMILES: C=CCc1ccc(O)c(OC)c1 [EUGENOL]
- Activity (Chikungunya virus [1]): 100%

SMILES: OCCN1CCN(CCCN2c3ccccc3Sc3ccc(C(F)(F)F)cc32)CC1 [FLUPHENAZINE]
- Activity (Chikungunya virus [1]): 11.6%

SMILES: O=C1OC(CN2CCOCC2)CN1/N=C/c1ccc([N+](=O)[O-])o1 (stereo not drawn) [FURALTADONE]
- Activity (Chikungunya virus [1]): 20.4%

SMILES: O=C(CCCN1CCC(O)(c2ccc(Cl)cc2)CC1)c1ccc(F)cc1 [HALOPERIDOL]
- Activity (Chikungunya virus [1]): 40.5%

SMILES: CCC(C)n1ncn(-c2ccc(N3CCN(c4ccc(OCC5COC(Cn6cncn6)(c6ccc(Cl)cc6Cl)O5)cc4)CC3)cc2)c1=O (stereo not drawn) [ITRACONAZOLE]
- pEC50 (Chikungunya virus [28]): 6.49

SMILES: CCCCCc1c2c(cc(O)c1C(=O)O)OC(=O)c1c(cc(OC)cc1C(=O)CCCC)O2 [LOBARIC ACID]
- pEC50 (Chikungunya virus [29]): 5.28

SMILES: CCCCN(CCCC)CC(O)c1cc(Cl)cc2c1-c1ccc(Cl)cc1/C2=C/c1ccc(Cl)cc1 (stereo not drawn) [LUMEFANTRINE]
- Activity (Chikungunya virus [1]): 100%

SMILES: C=CCN1CC[C@]23c4c5ccc(O)c4O[C@H]2C(=O)CC[C@@]3(O)[C@H]1C5 [NALOXONE]
- Activity (Chikungunya virus [1]): 121.5%

SMILES: CCCCCCCCCCC[C@@H](C[C@@H]1OC(=O)[C@H]1CCCCCC)OC(=O)[C@H](CC(C)C)NC=O [ORLISTAT]
- Activity (Chikungunya virus [1]): 48.7%

SMILES: c1ccc2c(c1)Nc1ccccc1S2 [PHENOTHIAZINE]
- Activity (Chikungunya virus [1]): 73.7%

SMILES: NC(=O)C1(N2CCCCC2)CCN(CCCC(=O)c2ccc(F)cc2)CC1 [PIPAMPERONE]
- Activity (Chikungunya virus [1]): 102.9%

SMILES: Clc1ccc2c(N3CCN(CCCN4CCN(c5ccnc6cc(Cl)ccc56)CC4)CC3)ccnc2c1 [PIPERAQUINE]
- Activity (Chikungunya virus [1]): 138.1%

SMILES: CN(C)CCCN1c2ccccc2Sc2ccccc21 [PROMAZINE]
- Activity (Chikungunya virus [1]): 18%

SMILES: CCN(CC)CCCC(C)Nc1c2ccc(Cl)cc2nc2ccc(OC)cc12 (stereo not drawn) [QUINACRINE]
- selectivity ratio [5]: 1.6
- CC50 at 48 h [30]: 19800 nM
- Activity (Chikungunya virus [1]): 12.5%
- pEC50 (Chikungunya virus [26]): 4.92

SMILES: Cc1nnc(C(=O)NC(C)(C)c2nc(C(=O)NCc3ccc(F)cc3)c(O)c(=O)n2C)o1 [RALTEGRAVIR]
- Activity (Chikungunya virus [1]): 58.9%

SMILES: O=P(O)(O)C(O)(Cc1cccnc1)P(=O)(O)O [RISEDRONIC ACID]
- Activity (Chikungunya virus [1]): 86.7%

SMILES: OCc1ccccc1O[C@@H]1O[C@H](CO)[C@@H](O)[C@H](O)[C@H]1O [SALICIN]
- Activity (Chikungunya virus [1]): 100%

SMILES: CCN(CC)CCOc1ccc2c(c1)C(=O)c1cc(OCCN(CC)CC)ccc1-2 [TILORONE]
- pEC50 (Chikungunya virus [31]): 5.38
- Activity (Chikungunya virus [1]): 100%

SMILES: CC(C)=CCC/C(C)=C/Cc1c(O)ccc(C(=O)/C=C/c2ccc(O)cc2)c1O [XANTHOANGELOL]
- selectivity ratio [5]: 1.7
- CC50 at 48 h [30]: 11800 nM
- Activity (Chikungunya virus [1]): 8.4%
- pEC50 (Chikungunya virus [26]): 5.15

SMILES: O=C1Cc2cc(CCN3CCN(c4nsc5ccccc45)CC3)c(Cl)cc2N1 [ZIPRASIDONE]
- Activity (Chikungunya virus [1]): 101%

— ChEMBL document CHEMBL5252629, “The protein disulfide isomerase inhibitor 3-methyltoxoflavin inhibits Chikungunya virus” (Bioorg Med Chem, 2023)
